Measured values from ChEMBL document CHEMBL1153138, “2,4-Diaminopyrimidine MK2 inhibitors. Part II: Structure-based inhibitor optimization” (Bioorg Med Chem Lett, 2010).

Tests used:
Set-up in all cases: dose 3 mg/kg, route intravenous
Details in all cases: in vivo
Rattus norvegicus [1] = test: Half life in Sprague-Dawley rat at 3 mg/kg, iv; format: ADME, organism-based
Rattus norvegicus [2] = test: AUC in Sprague-Dawley rat at 3 mg/kg, iv; format: ADME, organism-based, Plasma
Rattus norvegicus [3] = test: Clearance in Sprague-Dawley rat at 3 mg/kg, iv; format: ADME, organism-based
Rattus norvegicus [4] = test: Terminal Phase volume of distribution at steady state in Sprague-Dawley rat at 3 mg/kg, iv; format: ADME, organism-based

NCCCn1cc(-c2cc(-c3cc4ccccc4s3)c3[nH]ncc3c2)c2nc(N)ncc21
t1/2 (Rattus norvegicus [1]): 5.5 h
AUC (Rattus norvegicus [2]): 4200 ng·h/mL
CL (Rattus norvegicus [3]): 28.3 mL/min/kg
Vbeta (Rattus norvegicus [4]): 4 L/kg
